Source: patent US11021507B2, “Myricetin derivative and preparing method thereof, and application of same for treating colitis, preventing and treating colitis tumorigenesis, and treating colorectal cancer” (MARINE BIOMEDICAL RESEARCH INSTITUTE OF QINGDAO CO., LTD., priority 2016, dated 2021)
≈ marks a conversion by molar mass, not a printed value. Values belong to the compound of their own block, whether it stands above or below them.

Legend:
[1] = Water solubility test (equilibrium solubility in pure water, LC/MS); assay type: physicochemical; conditions: 37° C.; for solubility at 24 h: ultrapure water, thermodynamic from solid
Description: Water solubility test for myricetin derivative M5, M6 and M10
Instrument: Waters Alliance e2695 LC/MS; chromatographic column: Waters×Bridge C18 4.6×150 mm.
Appropriate amount of said myricetin derivative was weighed and dissolved in methanol to prepare a solution of 1 mg/ml respectively, which was diluted with methanol to different concentrations of working solution as standard samples for testing.
2. 1 mL of ultrapure water was added into a 1.5 ml transparent EP tube. Appropriate amount of said myricetin derivative was each added into a transparent EP tube, followed by vortex mixation and ultrasonication till the drug was no longer dissolved (the solution appeared cloudy or had suspended particles). The mixture was then placed in an incubating oscillator for shaking at the temperature of (37±1) ° C., 100 r/min, for 24 hours, to achieve a sufficient solubility balance. 24 hours later, the saturated solution was taken out for centrifugation at 3000 r/min for 15 min. The supernatant was immediately filtered through a 0.45 μm microporous membrane, and the initial part of the filtrate was discarded. Samples were added for chromatography. The peak area was measured and the equilibrium solubility of each compound in pure water was calculated using a standard curve.

[2] = system: mouse peritoneal macrophage RAW264.7; assay: Cytotoxicity / cell proliferation in RAW264.7 macrophages; assay type: cell-based; conditions: incubated 24 hours; dose increased to 20 μM
From the text: Therefore, this series of compounds may be considered suitable for drug development for treating chronic colitis and inflammatory bowel disease.

[3] = system: dextran sulfate sodium (DSS)-induced chronic colitis in mice; assay: DSS-induced chronic colitis model in mice; assay type: in vivo, C57BL/6 mice; conditions: for Diarrhea (general symptoms) during drug administration / Number of mice with no obvious diarrhea: 100 mg/kg daily, six mice per group; for Diarrhea (general symptoms) during drug administration: 18 days; for Grading scores for chronic inflammation of colon: number of mice colons with score + / Grading scores for chronic inflammation of colon: number of mice colons with score ++ / Grading scores for chronic inflammation of colon: number of mice colons with score 0: 3 mice examined per group, HE staining; for Grading scores for chronic inflammation of colon: number of mice colons with score +: + = slight inflammatory cell infiltration; for Grading scores for chronic inflammation of colon: number of mice colons with score ++: ++ = moderate inflammatory cell infiltration; for Grading scores for chronic inflammation of colon: number of mice colons with score 0: score 0 = no obvious inflammatory cell infiltration; for Colon length compared with model group / Body weight compared with model group: P<0.05; for Body weight compared with model group: FIG. 11
From the text: Determination of the therapeutic effects of myricetin derivative M5, M6 and M7 on dextran sulfate sodium (DSS)-induced chronic colitis in mice
1. Compounds tested and control drugs: myricetin derivative M5, M6 and M7, positive control drug-sulfasalazine (SASP, from Sigma); control drug-myricetin;
Experimental animals: C57BL/6 mice, 20 to 22 g, both male and female, SPF grade provided by Charles River Laboratories, Beijing.
2. DSS-induced chronic colitis model in mice: 36 C57BL/6 mice were randomly divided into six groups, with six mice in each group. DSS (0.5 g) was weighed and dissolved in 50 ml of purified water, for 6 mice to drink in one day. The DSS water was made freshly and was provided at fixed time on a daily basis for 7 days successively, which was then replaced by freshly-made purified drinking water for the next successive 14 days. The same procedure was repeated successively for 3 times. Each group of mice was given the same treatment for the preparation of chronic colitis model. 3. Drug preparation method: 3.1 Solvent control group: 0.5 mL of DMSO was added to 10 mL of 0.5% CMC-Na. 3.2 Myricetin derivative M5 and M6 tested: 100 mg of M5 and M6 each was weighed and dissolved in 0.5 ml of DMSO, and diluted to 10 mL with 0.5% CMC-Na. 3.3 Myricetin derivative M7 tested: 100 mg of M7 was weighed and dissolved in 10 mL of 5% sodium bicarbonate injection. 3.4 Myricetin control: 100 mg of myricetin was weighed and dissolved in 10 mL of 0.5% CMC-Na. 3.5 Sulfasalazine (SASP): 100 mg of SASP was weighed and dissolved in 10 mL of saline. 4. Administration method: the body weight of mice was weighed daily, and drugs were administered 0.01 ml/g (100 mg/kg) consecutively for 18 days. 5. Animal observation and treatment method: body weight, diet, diarrhea (or bloody stools) etc. were observed daily. At the end of the experiment, mice were sacrificed for dissection. The colon and small intestine were dissected out for visual observation and pathological analysis. Pathological examination methods and evaluation criteria: the colons of each group were fixed with 10% formalin followed by routine paraffin embedding, sectioning and HE staining. The degree of colonic inflammation in each group was evaluated under microscope. According to the degree of inflammatory cell infiltration in colonic lamina propria, the following grading criteria were established: level 0, no obvious inflammatory cell infiltration; +(level 1), slight inflammatory cell infiltration; ++(level 2), moderate inflammatory cell infiltration; +++(level 3), severe inflammatory cell infiltration and may be accompanied by necrosis or loss of mucosal cells.
Determination of Therapeutic Effects of Myricetin Derivative M13 and M14 on DSS-Induced Chronic Colitis in Mice
See Example 8 for the experimental method.

[4] = system: azomethane (AOM)/dextran sulfate sodium (DSS)-induced chronic ulcerative colitis and inflammation-associated tumorigenesis; assay: AOM/DSS-induced chronic ulcerative colitis and inflammation-associated tumorigenesis in mice; assay type: in vivo, C57BL/6 mice; conditions: 100 mg/kg aspirin or myricetin; M10 25-100 mg/kg; 12 weeks; FIG. 8
From the text: Determination of therapeutic effect of myricetin derivative M10 on azomethane (AOM)/dextran sulfate sodium (DSS)-induced chronic ulcerative colitis and inflammation-associated tumorigenesis.
Compound tested and control drugs: myricetin derivative M10, control compound myricetin, aspirin (Sigma).
Experimental animals: C57BL/6 mice, 20 to 22 g, both male and female, SPF grade provided by Beijing Vital Lihua Experimental Animal Company, and mice were fed with standard animal feed.
Animal models of AOM/DSS-induced chronic colitis and inflammation-associated tumorigenesis: 48 C57BL/6 mice were randomly divided into six groups with eight mice in each group, including model group, for which 0.5% CMC-Na was administered intragastrically every day; aspirin group, for which 100 mg/kg of aspirin (dissolved in 0.5% CMC-Na) was administered intragastrically; myricetin control group, for which 100 mg/kg of myricetin (dissolved in 0.5% CMCNa) was administered intragastrically; M10 high dose group, for which 100 mg/kg of M10 (dissolved in pure water) was administered intragastrically; M10 medium dose group, for which 50 mg/kg of M10 (dissolved in pure water) was administered intragastrically; M10 low dose group, for which 25 mg/kg of M10 (dissolved in pure water) was administered intragastrically.
Preparation of chronic ulcerative colitis mice model: said groups of mice were intraperitoneally injected with 10 mg/kg of azoxymethane (AOM) on day one. Purified drinking water containing 2% dextran sulfate sodium (DSS) was freshly made and provided on day one and on the next six consecutive days, the replaced by purified drinking water for the next seven consecutive days. The above procedure was then repeated for 3 more times.
M10-treated group: 200 mg of M10 was weighed and dissolved in 10 mL of 0.5% CMC-Na solution (20 mg/mL), and consecutively diluted 2 times and 5 times for future use. 0.2 mL of each prepared solutions was given intragastrically to mice (the body weight was assumed as 20 g per mouse), namely divided into high, medium or small dose groups. Myricetin control group: 200 mg of myricetin was weighed and dissolved in 10 mL of 0.5% CMC-Na. Aspirin-treated group: 200 mg of aspirin was weighed and dissolved in 10 mL of 0.5% CMC-Na. Administration method: The body weight of mice was measured daily, and drugs were administered at 0.01 mL/g (100 mg/kg) per day for 12 consecutive weeks. 4. Animal observation and treatment methods: weight, diet, diarrhea (or bloody stools) etc. were observed daily.
At the end of the experiment, mice were sacrificed. The colon and small intestine were dissected out for visual observation and pathological analysis. Pathological examination methods and evaluation criteria: the mice colons of each group were fixed with 10% formalin, followed by routine paraffin embedding, sectioning and HE staining. The developmental degree of colonic inflammation and colon cancer in each group of mice was evaluated under microscopic observation.

[5] = 100 mg/kg for 18 days, end of experiment, FIG. 2
[6] = Example 17, method of Example 8
[7] = Example 17, method of Example 8, FIG. 12

Solubility (in words) ([1]; 24 h, per Table 2): very low
solubility at 24 h [1]: < 0.1 µg/mL
Structure (SMILES): CC(=O)OC[C@H]1O[C@@H](O[C@H]2[C@H](OC(C)=O)[C@@H](OC(C)=O)[C@H](Oc3c(-c4cc(OCc5ccccc5)c(OCc5ccccc5)c(OCc5ccccc5)c4)oc4cc(OCc5ccccc5)cc(O)c4c3=O)O[C@@H]2COC(C)=O)[C@H](OC(C)=O)[C@@H](OC(C)=O)[C@H]1OC(C)=O [M5]
Inhibitory effect on cell proliferation (cytotoxic effect) [2]: no significant inhibitory effect
Diarrhea (general symptoms) during drug administration [3]: no significant reduction in diarrhea
Grading scores for chronic inflammation of colon: number of mice colons with score + ([3]; 100 mg/kg for 18 days): 1
Grading scores for chronic inflammation of colon: number of mice colons with score ++ ([3]; 100 mg/kg for 18 days): 2

solubility at 24 h [1]: 1.4 µg/mL (≈ 1.49 µM)
Structure (SMILES): CC(=O)OC[C@H]1O[C@@H](O[C@H]2[C@H](OC(C)=O)[C@@H](OC(C)=O)[C@H](Oc3c(-c4cc(O)c(O)c(O)c4)oc4cc(O)cc(O)c4c3=O)O[C@@H]2COC(C)=O)[C@H](OC(C)=O)[C@@H](OC(C)=O)[C@H]1OC(C)=O [M6]
Inhibitory effect on cell proliferation (cytotoxic effect) [2]: no significant inhibitory effect
Diarrhea (general symptoms) during drug administration [3]: slight reduction in diarrhea
Number of mice with no obvious diarrhea [3]: 1-2 mice
Grading scores for chronic inflammation of colon: number of mice colons with score + ([3]; 100 mg/kg for 18 days): 2
Grading scores for chronic inflammation of colon: number of mice colons with score 0 ([3]; 100 mg/kg for 18 days): 1
Colon length compared with model group [3, 5]: significantly longer

Structure (SMILES): O=c1c(O[C@@H]2O[C@H](CO)[C@@H](O[C@@H]3O[C@H](CO)[C@H](O)[C@H](O)[C@H]3O)[C@H](O)[C@H]2O)c(-c2cc(O)c(O)c(O)c2)oc2cc(O)cc(O)c12 [M7]
Inhibitory effect on cell proliferation (cytotoxic effect) [2]: no significant inhibitory effect
Diarrhea (general symptoms) during drug administration [3]: significant reduction in diarrhea
Number of mice with no obvious diarrhea [3]: 4 mice
Grading scores for chronic inflammation of colon: number of mice colons with score 0 ([3]; 100 mg/kg for 18 days): 3
Degree of chronic colonic inflammation (pathological examination) ([3]; 100 mg/kg for 18 days, FIG. 3 and Table 1): significantly alleviated
Colon length compared with model group [3, 5]: significantly longer

Structure (SMILES): O=c1c(O[C@@H]2O[C@H](CO[C@@H]3O[C@H](CO)[C@@H](O)[C@H]3O)[C@H](O)[C@H](O)[C@H]2O)c(-c2cc(O)c(O)c(O)c2)oc2cc(O)cc(O)c12 [M13]
Body weight compared with model group [3, 6]: significantly increased
Colon length compared with model group [3, 7]: significantly increased

Structure (SMILES): O=c1c(O[C@@H]2O[C@H](CO[C@@H]3O[C@H](CO)[C@@H](O)[C@H](O)[C@@H]3O)[C@H](O)[C@H](O)[C@H]2O)c(-c2cc(O)c(O)c(O)c2)oc2cc(O)cc(O)c12 [M14]
Body weight compared with model group [3, 6]: significantly increased
Colon length compared with model group [3, 7]: significantly increased

Structure (SMILES): O=C(O)c1cc(/N=N/c2ccc(S(=O)(=O)Nc3ccccn3)cc2)ccc1O [SASP, sulfasalazine, reference compound]
Diarrhea (general symptoms) during drug administration [3]: slight reduction in diarrhea
Grading scores for chronic inflammation of colon: number of mice colons with score + ([3]; 100 mg/kg for 18 days): 1
Grading scores for chronic inflammation of colon: number of mice colons with score ++ ([3]; 100 mg/kg for 18 days): 2

Structure (SMILES): CC(=O)Oc1ccccc1C(=O)O [aspirin, reference compound]
Pathological analysis of colon tissue (colon cancer) [4]: alleviated to some extent
